Reference: patent publication US9237988B2, “Benzalkonium chloride compositions for inhibiting the hydrolytic activity of endogenous matrix metalloproteinases in dental restorations” (Bisco, Inc., priority 2010, dated 2016)

Biological target: MMP-9 enzymes (Homo sapiens, UniProt P14780)
Test: MMP inhibition after incubation with MMP-9 enzymes, Anaspec SensoLyte Generic MMP Assay Kit
Type: biochemical
Details: for Percent MMP Inhibition at 1 Hour / Percent MMP Inhibition at 4 Hours: aqueous solution; for Percent MMP Inhibition at 1 Hour: 1 hour incubation; for Percent MMP Inhibition at 4 Hours: 4 hours incubation
Description: According to another presently expected one exemplary embodiment of the present application, multiple benzalkonium chloride dental solutions were prepared in aqueous solutions in concentrations varying from 0.02% to 2%, and were incubated with MMP-9 enzymes for 4 hours. After both 1 and 4 hours of incubation, standard negative and positive controls were compared to the below concentrations of the test compositions using an Anaspec SensoLyte Generic MMP Assay Kit (#72095, Anaspec, Fremont, Calif., USA), with the resulting MMP inhibitions shown in Tables 1 and 2 below.

[1] = 0.5% BAC by weight, listed as benzalkonium chloride

Sequence of MMP-9 enzymes (P14780 94-707): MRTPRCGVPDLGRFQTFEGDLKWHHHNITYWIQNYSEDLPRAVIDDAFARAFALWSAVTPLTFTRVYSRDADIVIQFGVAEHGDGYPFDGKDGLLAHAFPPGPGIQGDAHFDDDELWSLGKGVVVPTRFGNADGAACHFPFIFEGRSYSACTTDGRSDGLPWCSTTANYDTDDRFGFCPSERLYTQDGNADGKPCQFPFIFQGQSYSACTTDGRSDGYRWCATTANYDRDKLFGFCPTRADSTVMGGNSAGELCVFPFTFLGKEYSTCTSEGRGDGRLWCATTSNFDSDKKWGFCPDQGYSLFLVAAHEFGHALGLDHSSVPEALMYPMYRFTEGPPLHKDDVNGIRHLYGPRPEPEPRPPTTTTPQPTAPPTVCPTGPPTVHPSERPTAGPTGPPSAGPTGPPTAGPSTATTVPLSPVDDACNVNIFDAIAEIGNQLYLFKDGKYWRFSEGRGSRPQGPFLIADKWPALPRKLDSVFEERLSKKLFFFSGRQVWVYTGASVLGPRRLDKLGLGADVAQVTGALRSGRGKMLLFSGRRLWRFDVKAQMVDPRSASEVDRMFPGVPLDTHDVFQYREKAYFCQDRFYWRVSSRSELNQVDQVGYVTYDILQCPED

Percent MMP Inhibition at 1 Hour (0.02% BAC by weight): 0%
Percent MMP Inhibition at 4 Hours (0.02% BAC by weight): 3%
Percent MMP Inhibition at 1 Hour (0.05% BAC by weight): 0%
Percent MMP Inhibition at 4 Hours (0.05% BAC by weight): 6%
Percent MMP Inhibition at 1 Hour (0.5% BAC by weight): 96.5%
Percent MMP Inhibition at 1 Hour [1]: 96%
Percent MMP Inhibition at 4 Hours (0.5% BAC by weight): 85%
Percent MMP Inhibition at 4 Hours [1]: at least 85%
Percent MMP Inhibition at 1 Hour (1.0% BAC by weight): 98.3%
Percent MMP Inhibition at 4 Hours (1.0% BAC by weight): 95%
Percent MMP Inhibition at 1 Hour (2.0% BAC by weight): 100%
Percent MMP Inhibition at 4 Hours (2.0% BAC by weight): 100%
MMP inhibition (concentration as low as 0.02% by weight, time not stated): displayed MMP inhibition
Substance: benzalkonium chloride [BAC]
